Key:
BRD2, BRD3 and BRD4 = assay: Immunoblot degradation of BET proteins in HEK293 cells; format: cell-based, human
Method: To evaluate the ability of trivalent compounds to induce intracellular degradation of BET proteins, the inventors first treated human HEK293 cells for 4 hours at 1 μM concentration and assessed levels of BRD2, BRD3 and BRD4 by western blot. […] To confirm the greater activity of VHL-based compounds compared to CRBN-based PROTACs they next used live cell continual luminescent monitoring of CRISPR/Cas9 endogenously tagged HiBiT-BRD4 in HEK293 cells over 24 h^29,31. […] To confirm greater potency of VHL-based compounds, the inventors evaluated growth inhibition profiles of BET-sensitive cancer cell lines MV4; 11 (FIG. 1f), A549 and HL-60 (FIG. 6c) with compound treatments. […] Together, the initial screens support greater activity of structure-guided designed VHL degraders over their homologous CRBN molecules.
(§1) Degradation assays. MV4; 11 cells were seeded at 1×10^6 cells/mL of 10 cm dishes 12-24 h before treatment. 22Rv1 and HEK293 cells were seeded at 2.5-6×10^5 cells/well of 6 well plates 12-24 h before treatment. Cells were treated with test compounds with and without inhibitors as indicated or an equivalent volume of DMSO and lysed at the stated time point. For lysis, cells were washed twice in ice cold PBS (Invitrogen) then lysed in 250 μL/plate for MV4; 11 cells or 80 μL/well for 22Rv1 and HEK293 cells of ice cold lysis buffer containing 50 mM Tris hydrochloride pH 7.4, 150 mM sodium chloride, 1 mM EDTA pH 7.4, 1% v/v Triton X-100, 1×Halt™ Protease Inhibitor Cocktail (ThermoFisher). Lysates were sonicated, cleared by centrifugation at 4° C., at 15800×g for 10 mins and the supernatants stored at −80° C. Protein concentration was determined by BCA assay (Pierce) and the absorbance at 562 nm measured by spectrophotometry (NanoDrop ND1000). […] Bands were detected using a ChemiDoc MP imaging system (BioRad) and quantified (Image Studio Lite, version 5.2) with normalisation to β-actin and the DMSO control per time point. […]

[1] = tested on: HiBiT-BRD2, BRD3, and BRD4; assay: Degradation washout experiment, CRISPR HiBiT-BET HEK293 cells; format: cell-based, human; settings: 100 nM for 3.5 h then washout, monitored 50 h
Method: Media containing the 10 nM and/or 100 nM compounds was removed at 3.5 h, indicated on the graphs, and replaced with media lacking compounds for the remainder of the experiment. Luminescence (RLU) was continuously monitored over a 50 h time period and is plotted normalized to the DMSO control as Fractional RLU.
To assess whether the trivalent PROTAC induced also a more sustained degradation of BET proteins in cells compared to MZ1 or (R,S)-SIM1, degradation washout experiments were performed. CRISPR HiBiT-BET HEK293 cells were treated with equivalent concentration (100 nM) of SIM1, (R,S)-SIM1 and MZ1 compounds for 3.5 h, then media was removed and replaced with media lacking compounds. […] The HiBiT-BET protein levels were continuously monitored from the initial addition of the compounds and immediately after the wash for a total time of 50 h.

22Rv1 cells [2] = assay: Caspase-Glo 3/7 assay; format: cell-based; settings: 22Rv1, 24 h
Method: Caspase-Glo® 3/7 assays. 22Rv1 cells were seeded at 10,000 cells/well of white 96 well plates (Corning #3917) 12-24 h before treatment with test compounds with and without inhibitors or an equivalent volume of DMSO for 24 h. 100 μL/well of Caspase-Glo@ 3/7 Reagent (Promega) was added and the plate shaken at 500 rpm for 30 seconds. The plate was incubated for 2 h and luminescence measured using a PHERAstar FS plate reader (BMG Labtech).

HiBiT-BRD4 [3] = target: T1, HiBiT-BRD4 (Homo sapiens, UniProt O60885); assay: NanoBRET live cell residence time; format: cell-based; settings: live cells
T1 construct: endogenously HiBiT tag the N-terminal genomic loci of BRD2, BRD3, or BRD4; endogenous in cells; host or cells: HEK293 stably expressing LgBiT, CRISPR/Cas9 edited
Method: (§2) NanoBRET Target Engagement and Residence Time. For target engagement experiments in live and permeabilized cells, CRISPR HiBiT-BRD4 HEK293 cells stably expressing LgBiT were plated into white 96-well tissue culture plates at a density of 2×10^4 cells/well. Cells were equilibrated for 1 h with energy transfer probes and the indicated test compound prior to NanoBRET measurements. NanoBRET tracers were prepared at a working concentration of 20× in tracer dilution buffer (12.5 mM HEPES, 31.25% PEG-400, pH 7.5). NanoBRET BRD Tracer-02 was added to cells at a final concentration of 0.5 μM. To measure NanoBRET in live cells, NanoBRET NanoGlo Substrate and Extracellular NanoLuc Inhibitor (Promega) were added according to the manufacturer's recommended protocol, and filtered luminescence was measured on a GloMax Discover luminometer equipped with 450 nm BP filter (donor) and 600 nm LP filter (acceptor) using 0.3 s integration time. To measure NanoBRET in permeabilized cells, digitonin was added to the cells to a final concentration of 50 μg/mL and Extracellular NIuc inhibitor was omitted during the detection step. […] Cells were incubated in 15 mL conical tubes with caps loosened in a tissue culture incubator for 1 h. Following incubation, cells were spun at 300×g for 5 min, washed once with Opti-MEM, spun a second time at 300×g for 5 min, then resuspended with fresh Opti-MEM before plating at 2×10^4 cells/well. NanoBRET BRD Tracer-02 was added at a final concentration of 0.5 μM cells and kinetic NanoBRET measurements were collected on a GloMax Discover. NanoBRET ratios were expressed in milliBRET units and calculated according to the equation in the NanoBRET Ubiquitination, Ternary Complex and Biosensor Experiments section.

22Rv1 cells [4] = assay: PARP cleavage immunoblot in 22Rv1 cells; format: cell-based; settings: 22Rv1, 10 nM, 24 h (MT1, MZ1 up to 48 h)
Method: Next, the inventors assessed the functional effects of SIM1 on the viability of 22Rv1 cancer cells. […] Cells died of apoptosis as indicated by prevented cleavage of PARP upon co-treatment with QVD-OPh, a pan-caspase inhibitor, and not of necroptosis, as shown by co-treatment with Necrostatin-1 (FIG. 3d and FIG. 10a).
as §1, with “Lysates were sonicated, cleared by centrifugation at 4° C., at 15800×g for 10 mins and the supernatants stored at −80° C.” left out

HiBiT-BRD4 [5] = target: T1, HiBiT-BRD4; assay: NanoBRET target engagement, permeabilized and live cells; format: cell-based; settings: for IC80: live cell format, unit given with each value, read-out: IC80 for tracer displacement
Method: Cells were treated with a fluorescent BET tracer, then incubated with the indicated compounds at various concentrations to measure competitive displacement.
as §2

MV4; 11 cells = assay: Correlative cell viability in cMyc-HiBiT MV4;11 cells (CellTiter-Glo); format: cell-based; settings: 1 nM, after 6 h
Method: Monitoring cMyc Loss and Cell Viability in MV4; 11 Cells. CRISPR cMyc-HiBiT MV4; 11 cells (Promega) were plated at a density of 5×10^4 cells per well in solid, white 96-well tissue culture plates (Corning Costar #3917). Following an overnight incubation, they were treated with 1-100 nM concentration of the indicated compounds and at the plotted time points, cMyc levels were determined using luminescent measurement with NanoGlo HiBiT lytic reagent (Promega). Replicate plate of all compound treatments were prepared and at identical timepoints as the protein level measurements, cell viability was measured using Cell-Titer Glo (Promega). Plates were shaken on an orbital shaker for 10-20 min before reading luminescence on a GloMax Discover Microplate Reader (Promega).

[6] = tested on: VHL and full-length BRD4 WT, N140F, or N433F; assay: Kinetic NanoBRET ternary complex assay, NanoLuc-BRD4 with HaloTag-VHL; format: cell-based, human
Method: NanoBRET Ubiquitination, Ternary Complex, and Biosensor Experiments. For endogenous live cell BET:Ubiquitin and BET:VHL assays, CRISPR HiBiT-BRD2, HiBiT-BRD3, and HiBiT-BRD4 HEK293 cells stably expressing LgBiT were transfected with 2 μg of HaloTag-UBB or HaloTag-VHL vectors in 6-well plates using FuGENE HD (Promega). For full transient NanoBRET experiments with NanoLuc-BRD4 WT, N433F, or N140F mutants, HEK293 cells (8×10^5) were co-transfected with 0.02 μg NanoLuc-BRD4 and 2 μg of HaloTag-VHL vectors. For transient NanoBRET experiments with the BRD4 NL-BD1-BD2-HT biosensor containing either the WT tandem BD1-BD2 domain (AA 44-460) or containing the N433F mutation, HEK293 cells (8×10^5) were transfected with 0.02 μg biosensor plasmid and 2 μg carrier DNA. […] NanoBRET NanoGlo (Promega) substrate was added and BRET was measured two hours post-compound treatment using a GloMax Discover Microplate Reader (Promega). Dual filtered luminescence was collected with a 460/80 nm bandpass filter and a 610 nm long pass filter (acceptor, HaloTag NanoBRET ligand) using an integration time of 0.5 s. For all NanoBRET experiments, background subtracted NanoBRET ratios expressed in milliBRET units were calculated from the equation: […]

Question: With `Cc1ncsc1-c1ccc(CNC(=O)[C@@H]2C[C@@H](O)CN2C(=O)[C@@H](NC(=O)COCC(C)(COCCOCCOCCNC(=O)C[C@@H]2N=C(c3ccc(Cl)cc3)c3c(sc(C)c3C)-n3c(C)nnc32)COCCOCCOCCNC(=O)C[C@H]2N=C(c3ccc(Cl)cc3)c3c(sc(C)c3C)-n3c(C)nnc32)C(C)(C)C)cc1` (stereo partly drawn) [(R,S)-SIM1] as the molecule, how does the “degradation of BRD2, BRD3 and BRD4 by western blot” value (BRD2, BRD3 and BRD4; HEK293 cells, 1 μM, 4 h) read?
Answer: behave similarly to MZ1 and less potently than SIM1

Question: What about the “BET protein level after washout” value [1] of the same molecule?
Answer: greater and occurred faster than those observed with SIM1

Question: With `Cc1ncsc1-c1ccc([C@H](C)NC(=O)[C@@H]2C[C@@H](O)CN2C(=O)[C@@H](NC(=O)COCCCOCCNC(=O)C[C@@H]2N=C(c3ccc(Cl)cc3)c3c(sc(C)c3C)-n3c(C)nnc32)C(C)(C)C)cc1` [ARV-771] as the molecule, how does the EC50 (22Rv1 cells [2]) read?
Answer: 0.09 µM

Question: What does the source list for `Cc1ncsc1-c1ccc(CNC(=O)[C@@H]2C[C@@H](O)CN2C(=O)[C@@H](NC(=O)COCCOCCOCCNC(=O)C[C@@H]2N=C(c3ccc(Cl)cc3)c3c(sc(C)c3C)-n3c(C)nnc32)C(C)(C)C)cc1` [MZ1]?
Answer: residence time on BRD4 (HiBiT-BRD4 [3]): residence time between the monovalent and bivalent BET inhibitors; preference of degradation among BET proteins (BRD2, BRD3 and BRD4; immunoblot, 4 h): […]; DC50 (BRD2, BRD3 and BRD4; immunoblot, 4 h treatment, across all the BET proteins): […]; EC50 (22Rv1 cells [2]): 0.15 µM; PARP cleavage / cell death (22Rv1 cells [4]): did not cause observable PARP cleavage; IC80 (HiBiT-BRD4 [5]): 10 µM; BET protein level after washout [1]: greater and occurred faster than those observed with SIM1

Question: How did the “residence time on BRD4” value (HiBiT-BRD4 [3]) turn out when `Cc1ncsc1-c1ccc(CNC(=O)[C@@H]2C[C@H](O)CN2C(=O)[C@@H](NC(=O)COCC(C)(COCCOCCOCCNC(=O)C[C@@H]2N=C(c3ccc(Cl)cc3)c3c(sc(C)c3C)-n3c(C)nnc32)COCCOCCOCCNC(=O)C[C@@H]2N=C(c3ccc(Cl)cc3)c3c(sc(C)c3C)-n3c(C)nnc32)C(C)(C)C)cc1` [cis-SIM1, N,N′-(11-((2-(((S)-1-((2S,4S)-4-hydroxy-2-((4-(4-methylthiazol-5-yl)benzyl)carbamoyl)pyrrolidin-1-yl)-3,3-dimethyl-1-oxobutan-2-yl)amino)-2-oxoethoxy)methyl)-11-methyl-3,6,9,13,16,19-hexaoxahenicosane-1,21-diyl)bis(2-((S)-4-(4-chlorophenyl)-2,3,9-trimethyl-6H-thieno[3,2-f][1,2,4]triazolo[4,3-a][1,4]diazepin-6-yl)acetamide)] was run?
Answer: identical displacement kinetics as MT1

Question: What about the measurable cellular death (MV4; 11 cells) of the same molecule?
Answer: not

Question: What about the ternary complex formation [6] of the same molecule?
Answer: not

Question: What about the cell permeability (HiBiT-BRD4 [5]; inferred from live versus permeabilized cells) of the same molecule?
Answer: readily cell-permeable

Question: What about the IC80 (HiBiT-BRD4 [5]) of the same molecule?
Answer: 0.1 µM

Question: What about the “shift of binding affinity to BRD4 compared to MT1” value (HiBiT-BRD4 [5]; live cells) of the same molecule?
Answer: 10 ×

Question: And the “binding to endogenous HiBiT-BRD4” value (HiBiT-BRD4 [5]; permeabilized cells)?
Answer: near-identical binding affinities and IC50 values

From patent US20240252654A1, “IMPROVED SMALL MOLECULES” (University of Dundee, priority 2020, published 2024)
